Reference: US4882359A, “Azacycloalkane derivatives, absorption promoters containing the derivatives as the effective ingredient and external preparations containing the absorption promoters” (priority 1986, dated 1989)
Read-outs that look alike come from different tables or passages of the source.

How the values were obtained:
[1] = test system: glucose level in blood; experiment: Rectal absorption of insulin from suppository: glucose level in blood of rabbits; type: in vivo, male rabbits; details: insulin suppository 0.3 g/kg rectal, 3% promoter where used
Method: There were prepared the following suppositories for use in normal, control and test groups, respectively, each group consisting of five male rabbits weighing 2.5 to 3.5 kg each.
The three suppositories were into the rectums of the rabbit groups in an amount of 0.3 g suppository/kg, respectively. Thereafter, blood was collected from the rabbits through their ear vein three times with the lapse of time to measure the three collected blood samples for glucose level in blood by a glucose oxidase method. […] The results are indicated in terms of a change in glucose level in blood with respect to the glucose level in blood prior to the administration of the suppositories.

[2] = for Activity (phenol red permeation): relative to Control (Vehicle) = 1.0
Method: There were investigated the effects of the compound of this invention on the percutneous penetration of phenol red which is difficult to be penetrated using the dorsal skin of female hairless mice (each 9 weeks old) by a diffusion cell method which comprised adding 0.5 ml of a sodium chloride injection containing 2 mM of phenol red to the donor side and measuring the amount of phenol red permeated into the receptor layer by high-pace optimal densitometric meter (559 nm).

[3] = in vivo; details: rat
[4] = test system: glucose level in blood; experiment: Percutaneous absorption of glibenclamide: glucose level in blood of glucose-loaded rats; type: in vivo, Wistar-strain male rats; details: for Glucose level: glibenclamide 0.6 wt.% solution on dorsal skin, two hours after s.c. 20% glucose; for Inhibition rate: glucose level, relative to control group A and normal group
Method: There were prepared control and test solutions having the following respective formulations (Table 8): […]
In the tests, there were used groups each consisting of four Wistar-strain male rats which weighed about 200 to 250 g and abstained from food for 24 hours.
Each of the control solutions A and B and the test solution indicated in the above Table 8 was applied to the dorsal skins, shorn by an electric clipper or shaver, of the rats of one group in an amount of 175 μl/2.5×2.5 cm^2 and then sealed up. Three hours after sealing up, 1.5 ml of 20% glucose was subcutaneously injected into said rats. Two hours after the glucose injection, the blood of the rats was collected and measured for glucose level in blood.
For comparison, the above procedure was followed except that azone was substituted for the compound of Example 12 in the test solution.
For further comparison, the blood of rats of one group which had been subjected only to 24 hours' abstinence from food (this group being hereinafter referred to as "normal group"), was measured for glucose level in blood. The rat groups to which the control solution A, the control solution B and the test solution were applied, are hereinafter referred to as "control group A", "control group B" and "test group", respectively.

[5] = test system: dorsal skin of Japanese-native rabbits; experiment: Primary skin irritation test (Draize's method); type: in vivo; design: key to Average irritation score, 24 hours / Average irritation score, 48 hours / Average irritation score, 72 hours: Draize points: 0-2 mild, 2-6 moderate, 6-8 severe irritation; details: for Average irritation score, 24 hours: 3% solution in polyethylene glycol 300, 24 hours after removal of plaster; for Average irritation score, 48 hours: 3% solution in polyethylene glycol 300, 48 hours after removal of plaster; for Average irritation score, 72 hours: 3% solution in polyethylene glycol 300, 72 hours after removal of plaster; for Overall evaluation (skin irritation): graded from irritation scores at 24, 48 and 72 hours
Method: As one of tests on the compounds of this invention for their topical toxicity, a primary skin irritation test was made on skins using rabbits as the subjects. More particularly, an adhesive plaster for use in batch tests, to which 100 μl of a 3% test solution of each of the compounds of Examples 12, 37, 57 and 73 of this invention in 100 ml of polyethylene glycol 300 had dropwise been applied, was applied to the hair-shorn dorsal skin of three Japanese-native rabbits weighing 2.5 to 3.0 kg each and then sealed up on the dorsal skin for 24 hours. The rabbits were evaluated three times for their dorsal skin irritative reaction 24, 48 and 72 hours after removal of the plaster by using a method in accordance with the Draize's method.
The results are as shown in Table 18 in which the overall evaluation is represented by the following equation. [formula] and is graded into mild irritation (0-2 points), moderate irritation (2-6 points) and severe irritation (6-8 points).

[6] = acryl tape, relative to Control (Vehicle) = 1.0
[7] = Skin penetration of various drugs from test solution, diffusion cell method; type: in vitro ADME, female hairless mice
[8] = Skin penetration of pindolol from test solution, diffusion cell method; type: in vitro ADME, female hairless mice
[9] = relative to Control (Vehicle) = 1.0; equals ratio of 48 hrs values
Method: There were investigated the effects of the compound of this invention on the percutaneous penetration of ketoprofen using the dorsal skin of female hairless mice (each 9 weeks old) by a diffusion cell method which comprised adding 0.5 ml of said test solution to the donor side and measuring the amount of ketoprofen permeated into the receptor layer by performance liquid chromatography (HPLC). For comparison, the above procedure was followed except that a control solution containing no compound of this invention was substituted for said test solution containing the compound of this invention.

[10] = Rectal absorption of indomethacin and 5-FU from suppositories; type: in vivo, rabbits
Method: Each of male rabbits was fasted for 24 hrs prior to the following Experiment. The two suppositories were into the rectums of the rabbit groups in an amount of 0.3 g suppository/kg, respectively. Thereafter, blood was collected from the rabbits through their ear vein to measure the collected blood samples for the serum concentration of antibiotic by HPLC.
There was prepared test suppositories having the following formulations: […]
The same procedure of Example 151 was followed except that the above suppositories were used and that 3 or 4 rabbits were used in each group.

[11] = Skin penetration of 5-FU from test solution, diffusion cell method; type: in vitro ADME, female hairless mice
[12] = hydrophylic ointment, relative to Control (Vehicle) = 1.0
[13] = Rectal absorption of antibiotics from suppositories, serum concentration by HPLC; type: in vivo, male rabbits; details: relative to Control (Vehicle) = 1.0, equals AUC ratio
Method: There was prepared the following suppositories of antibiotics for use in control and test groups, respectively, each group consisting of five male rabbits weighing 2.5 to 3.5 kg each.

[14] = Percutaneous absorption of pindolol in rats, serum concentration by HPLC; type: in vivo, Wistar-strain male rats; details: relative to Control (Vehicle) = 1.0 of the same series in Table 5
Method: There were provided groups each consisting of four Wistar-strain male rats each weighing 200 to 250 g and having their dorsal skin hair shorn with an electric shaver.
Each of the test solutions (pindolol-containing preparations) was applied to the shorn dorsal skin of test rats of one of the groups in an amount of 150 μl/2.5×2.5 cm^2 and then sealed up. Three hours after the application of the test solution, the blood of the test rats was collected and measured for serum concentration of pindolol by HPLC.
For comparison, the above procedure was followed except that there was used a control solution which was the same as said test solution except for non-use of any compounds of this invention, and also followed using a comparative test solution which was the same as the test solution except for the substitution of a comparative compound for the compound of this invention.

[15] = gel ointment, relative to Control (Vehicle) = 1.0

CCCCCCCCCCCCN1CCCCCC1=O [Azone, 1-n-dodecylazacycloheptane-2-one, reference compound]
Changes of glucose level to the initial, 0.5 hr [1]: -4 mg/dL | Changes of glucose level to the initial, 1 hr [1]: +2 mg/dl | Changes of glucose level to the initial, 3 hrs [1]: +1 mg/dl | Cumulative amount of phenol red permeated, 24 hrs later ([2]; 3.0 wt.% test compound, phenol red, 24 hrs): 8.4 ± 7.6 µM | Cumulative amount of phenol red permeated, 48 hrs later ([2]; 3.0 wt.% test compound, phenol red, 48 hrs): 14.5 ± 0.7 µM | Activity (phenol red permeation) [2]: 24.2 | LD50 at 168 h ([3]; po): > 5000 mg/kg | LD50 at 168 h ([3]; sc): > 5000 mg/kg | Glucose level [4]: 133 ± 13 mg/dL | Inhibition rate [4]: 25.0% | Average irritation score, 24 hours [5]: 3.8 ± 1.3 | Average irritation score, 48 hours [5]: 3.8 ± 1.7 | Average irritation score, 72 hours [5]: 5.5 ± 1.9 | Overall evaluation (skin irritation) [5]: Moderate (moderate irritation (2-6 points)) | irritating actions on the skins (in words) ([5]; rabbit, in vivo): moderate grade irritating actions

CCCCCCCCCCSCCN1CCCC1=O [Example 12]
Changes of glucose level to the initial, 0.5 hr [1]: -30 mg/dL | Changes of glucose level to the initial, 1 hr [1]: -29 mg/dL | Changes of glucose level to the initial, 3 hrs [1]: -22 mg/dL | Activity (pindolol permeation) [6]: 3.9 | Activity (phenol red permeation) [2]: 86.5 | Activity (skin penetration) ([7]; drug: 1,25-Dihydroxy VD3): 5.4 | Activity (skin penetration) ([7]; drug: 8-Bromocyclic AMP): 50.3 | Activity (skin penetration) ([7]; drug: Chlordiazepoxide): 4.8 | Activity (skin penetration) ([7]; drug: Clonidine): 6.3 | Activity (skin penetration) ([7]; drug: Clotrimazole): 3.2 | Activity (skin penetration) ([7]; drug: Diazepam): 3.5 | Activity (skin penetration) ([7]; drug: Erythromycin): 4.5 | Activity (skin penetration) ([7]; drug: Estradiol): 2.0 | Activity (skin penetration) ([7]; drug: Ketotifen): 3.8 | Activity (skin penetration) ([7]; drug: Lidocain): 10.3 | Activity (skin penetration) ([7]; drug: Nicotinic acid): 15.3 | Activity (skin penetration) ([7]; drug: Nifedipine): 6.2 | Activity (skin penetration) ([7]; drug: Prostaglandin E2): 4.8 | Activity (skin penetration) ([7]; drug: Scopolamin): 2.4 | Activity (skin penetration) ([7]; drug: Testosterone): 2.5 | Activity (skin penetration) ([7]; drug: Triamcinolone): 5.5 | Activity (skin penetration) ([7]; drug: p-Aminobenzoic acid): 12.3 | Cumulative amount of pindolol permeated, 24 hrs later [8]: 50.0 ± 7.0 µM | Cumulative amount of pindolol permeated, 48 hrs later [8]: 127.6 ± 4.8 µM | Activity (pindolol permeation) ([8]; test solution, relative to Control (Vehicle) = 1.0): 34.5 | Activity (ketoprofen permeation) [9]: 3.3 | Activity (rectal absorption) ([10]; drug: 5-FU): 4.8 | Activity (rectal absorption) ([10]; drug: Indomethacin): 2.5 | LD50 at 168 h ([3]; po): > 5000 mg/kg | LD50 at 168 h ([3]; sc): > 5000 mg/kg | Cumulative amount of 5-FU permeated, 24 hrs later ([11]; 3.0 wt.% test compound, 5-FU 1.8 wt.% in ethanol/water, 24 hrs): 465 ± 83 µM | Cumulative amount of 5-FU permeated, 48 hrs later ([11]; 3.0 wt.% test compound, 5-FU 1.8 wt.% in ethanol/water, 48 hrs): 963 ± 22 µM | Activity (5-FU permeation) ([11]; relative to Control (Vehicle) = 1.0): 4.7 | Glucose level [4]: 115 ± 4 mg/dL | Inhibition rate [4]: 46.4% | Activity (indomethacin permeation) [12]: 3.2 | Activity (rectal absorption) ([13]; ABPC suppository): 6.3 | Activity (rectal absorption) ([13]; CET suppository): 3.0 | Average irritation score, 24 hours [5]: 0.3 ± 0.3 | Average irritation score, 48 hours [5]: 0.3 ± 0.3 | Average irritation score, 72 hours [5]: 0.5 ± 0.5 | Overall evaluation (skin irritation) [5]: Mild (mild irritation (0-2 points)) | Activity (serum concentration of pindolol) [14]: 47.8 | Activity (indomethacin permeation) [15]: 18.4
